Patent US6537545B1, “Use of corneal hardening agents in enzymeorthokeratology” (ISTA Pharmaceuticals, Inc., priority 1998, dated 2003)

Key:
Type in all cases: in vivo
[1] = test system: eye of myopic human patient; assay: Safety and efficacy of hyaluronidase and topical 3% glyceraldehyde solution, myopia in a human patient (Example 8); settings: 50 IU hyaluronidase, lenses, 3% glyceraldehyde drops 15 days; monitored 196 days
Protocol: In this study, a single subject was selected to test the safety and efficacy of using hyaluronidase and a glyceraldehyde solution to treat sub-optimal visual acuity. In this study, the subject was first medically evaluated and a baseline was established. A medical history of the subject was taken and a detailed examination of the subject's eyes was also performed. The subject's eyes were tested to determine: refraction, cell count, intraocular pressure (IOP), pachymetry, corneal topography and corneal elasticity. A slit-lamp examination was also performed to establish the health of the eyes. Also, the presence of any general or ocular discomfort of the subject was noted.
Following the establishment of a baseline reading (UVA 20/300), the subject was administered a single intrastromal injection of 50 IU hyaluronidase prior to the orthokeratology treatment. Following 7 days of incubation of the subject's eyes with the injected material, the subject was fitted with corrective contact lenses for overnight wear. The subject wore the corrective lenses day and night for a period of seven (7) days. At this point the subject's visual acuity was 20/15. […] The visual acuity of the subject was then monitored for 196 days to determine the effect of the treatment on the unaided visual acuity of the subject;

[2] = test system: Dutch Belted rabbit eyes; assay: GLP safety study, slit lamp biomicroscopy and intraocular pressure (Example 3)
Protocol: This study was conducted in compliance with the Good Laboratory Practices requirements of the U.S. Food and Drug Administration. Here, 27 eyes were randomly chosen to form the control group and the remaining 27 eyes formed the experimental group. All of the animals received ophthalmic examinations consisting of slit lamp biomicroscopy (as described in Experiment 2) and intraocular pressure measurements (IOP) as generally practiced in the art, before the experiment began to establish baseline conditions.
Following baseline examinations, all rabbits received 500 IU in 20 μL of hyaluronidase into the corneal stroma bilaterally using the injection method described in Experiment 1. No examinations or treatments were performed on the animals until Study Day 8. On Study Day 8, the animals received slit lamp examinations and IOP measurements.
Treatment with topical eyedrops began immediately after the Day 8 examinations. Each rabbit received 2 drops of test agent four times a day at 05:00, 09:00, 13:00 and 17:00. The 3% glyceraldehyde solution was prepared in 0.9% sodium chloride USP under Good Manufacturing Practices (GMP). The 0.9% sodium chloride for injection was also prepared using GMP. Each rabbit eye in the experimental group received the 3% glyceraldehyde solution while the control eyes received a 0.9% sodium chloride solution. […]

[3] = test system: eyes of non-sighted human patients; assay: Safety of enzymatic corneaplasty with hyaluronidase and topical 3% glyceraldehyde in seven non-sighted human patients (Example 6); settings: 500 IU hyaluronidase, lenses, 3% glyceraldehyde 2 drops 4 times per day, 28 days
Protocol: The methodology used in this study was similar to that discussed in Example 4. Subjects were injected intrastromally with 500 IU of a hyaluronidase solution on the first day of the study following an initial eye examination. The injected enzyme was allowed to digest the corneal substrate for seven (7) days. At that time contact lenses were fitted to the treated eyes of the subjects. The subjects wore the lenses for another seven days at which time the topical application of the 3% glyceraldehyde solution was first applied. The 3% glyceraldehyde solution was applied at 2 drops, 4 times per day for the following 28 days. At the end of the 28 days the contact lenses were removed and the glyceraldehyde treatments were ceased.
The subjects were examined and data was recorded throughout the treatment period and following the cessation of treatment. […] The only apparent negative effects of the treatment were incidents of edema and minor manifestations of SPK. These negative manifestations resolved favorably for most patients.

[4] = test system: eyes of non-sighted human patients; assay: Safety of enzymatic corneaplasty with hyaluronidase and topical 3% glyceraldehyde in two non-sighted human patients (Example 4)
Protocol: The two patients (Nos. 1108 and 1105) each received an intrastromal injection of 500 IU of hyaluronidase. […] Patient 1108 wore the lenses for 21 days while patient 1105 wore the lenses for 50 days.
Patient 1108 was treated according to the protocol outline above. After the 21 day lens wearing period had expired, the patient was instructed to apply two (2) drops of the 3% glyceraldehyde solution four times per day. The application of 3% glyceraldehyde continued for thirty-six (36) days after lens wear had ceased. Following termination of the 3% glyceraldehyde treatment, the patient was examined occasionally and the final examination was administered 126 days following the cessation of glyceraldehyde treatment.
This patient was treated as described above and wore the RGP lenses for 50 days. Unlike patient 1108, patient 1105 was treated with the 3% glyceraldehyde solution for one (1) month while the patient was wearing the RGP contact lenses. The 3% glyceraldehyde solution was applied four times per day for a total period of 43 days.

O=CC(O)CO (centres unmarked) [glyceraldehyde]
duration of correction of unaided visual acuity [1]: more than six months
overall deleterious effects in rabbits ([2]; 3% glyceraldehyde solution, 32 days): no significant deleterious effects
number of the 14 criteria (slit lamp findings, IOP) with statistically significant differences between control and glyceraldehyde treated groups ([2]; 27 rabbits, 500 IU hyaluronidase bilaterally, 3% glyceraldehyde 2 drops four times a day, 32 days vs 0.9% sodium chloride, any timepoint): None
negative effects of enzyme injection or glyceraldehyde application [3]: no significant negative effects
level of SPK after termination of lens wear while continuing 3% glyceraldehyde ([4]; patient 1105): observed to decrease
level of superficial punctate keratopathy (SPK) during lens wear and 3% glyceraldehyde application ([4]; patient 1105, 500 IU hyaluronidase, RGP lenses 50 days, drops four times per day, 43 days): not observed to increase
appearance of corneas at follow-up ([4]; patient 1105, 98 days post cessation of glyceraldehyde treatment): appeared normal
appearance of corneas under slit-lamp biomicroscopy ([4]; patient 1105, within 48 hours of ceasing the 43 day glyceraldehyde treatment): appeared normal under slit-lamp biomicroscopy and were free of any SPK
effects on the stroma or the endothelial cells during glyceraldehyde treatment ([4]; patient 1108, 500 IU hyaluronidase, lenses 21 days, then 3% glyceraldehyde 2 drops four times per day, 36 days): did not indicate any deleterious effects
adverse reactions after completion of treatment ([4]; patient 1108, after the 36 day protocol up to final examination 126 days after cessation): Nor were there any adverse reactions observed
overall observable negative results ([4]; two non-sighted human patients): no observable negative results
